The values below come from ChEMBL document CHEMBL4715856 (Bioorg Med Chem, 2020).

pEC50, pIC50, pKi: −log10 of the molar value. In brackets after ≈: the same amount, converted by molar mass.

Data set [1] is described as follows: Inhibition of SARS-CoV nucleocapsid protein expressed in Escherichia coli BL21 (DE3) incubated for 1 hr by quantum dots-conjugated oligonucleotide biochip-platform based confocal laser scanning microscopic analysis. Also on record: species or system Severe acute respiratory syndrome-related coronavirus.
Data set [2] is described as follows: Inhibition of SARS-CoV2 3C-like protease (3264 to 3569 residues) expressed in Escherichia coli BL21(DE3) BL21-Gold using Dabcyl-KTSAVLQSGFRKM-E(Edans)-NH2 as substrate preincubated for 10 min followed by substrate addition by FRET assay. Also on record: species or system Severe acute respiratory syndrome coronavirus 2.
Data set [3] can be described thus: Inhibition of MERS-CoV 3C-like protease. On the set-up: species or system Middle East respiratory syndrome-related coronavirus.
The nature of data set [4]: Inhibition of SARS-CoV 3C-like protease by FRET assay. On the set-up: species or system Severe acute respiratory syndrome-related coronavirus.
Data set [5] is described as follows: Inhibition of 3C-like protease in SARS-CoV2 infected in African green monkey vero cells assessed as antiviral activity incubated for 1 hr by crystal violet staining based plaque reduction assay. Type of data set: cell-based. Conditions: Severe acute respiratory syndrome coronavirus 2, Vero. (In general: Plaque reduction counts the foci of infection that form in a cell layer.)

The nature of data set [6]: Inhibition of SARS-CoV wild type 3C-like protease using MCA-AVLQSGFR-Lys(Dnp)-Lys-NH2 s substrate by fluorescence method. Also on record: species or system Severe acute respiratory syndrome-related coronavirus.
The nature of data set [7]: Inhibition of SARS-CoV C-terminal (GPH6 residues)-fused wild type 3C-like protease expressed in Escherichia coli BL21(DE3) cells using MCA-AVLQSGFR-Lys(Dnp)-Lys-NH2 s substrate by fluorescence method. Also on record: species or system Severe acute respiratory syndrome-related coronavirus.
Data set [8] in a line: Inhibition of HcoV-EMC 3C-like protease. Also on record: species or system unidentified human coronavirus.
Data set [9] can be described thus: Inhibition of His-tagged SARS-CoV HKU39849 3C-like protease expressed in Escherichia coli BL21 assessed as reduction in cleavage activity using H2N-TSAVLQSGFRKW-COOH as substrate preincubated for 30 mins followed by substrate addition by HPLC-based assay. Also on record: species or system Severe acute respiratory syndrome-related coronavirus.
Data set [10] is described as follows: Inhibition of SARS-CoV(BJ-01) 3C-like protease infected in African green monkey Vero cells assessed as reduction in viral titer incubated for 48 hrs by crystal violet staining based plaque reduction assay. Type of data set: cell-based. Particulars: Severe acute respiratory syndrome-related coronavirus, BJ-01, Vero.
The nature of data set [11]: Inhibition of MERS-CoV NSP13 helicase measured after 5 min by FRET-based assay. Also on record: species or system Middle East respiratory syndrome-related coronavirus.
Data set [12] deals with guanine-N7 methyltransferase (human versus SARS coronavirus WHU). The experiment in a line: in vitro.
Data set [13] deals with T1, mRNA cap guanine-N(7) methyltransferase (Homo sapiens, UniProt O43148).
T1 sequence (O43148 whole entry): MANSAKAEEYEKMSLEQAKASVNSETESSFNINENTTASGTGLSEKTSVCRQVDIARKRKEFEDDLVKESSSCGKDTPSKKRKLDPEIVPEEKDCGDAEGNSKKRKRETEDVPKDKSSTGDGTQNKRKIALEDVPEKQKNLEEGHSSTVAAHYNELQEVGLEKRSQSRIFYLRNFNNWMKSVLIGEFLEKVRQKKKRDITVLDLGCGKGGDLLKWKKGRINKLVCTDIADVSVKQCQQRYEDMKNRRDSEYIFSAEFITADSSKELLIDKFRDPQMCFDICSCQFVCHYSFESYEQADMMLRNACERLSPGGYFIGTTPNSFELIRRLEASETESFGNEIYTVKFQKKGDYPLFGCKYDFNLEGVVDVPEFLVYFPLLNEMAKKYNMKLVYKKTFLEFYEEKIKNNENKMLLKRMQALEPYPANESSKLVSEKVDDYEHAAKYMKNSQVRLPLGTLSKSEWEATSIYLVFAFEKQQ
Data set [14] concerns the target T1, mRNA cap guanine-N(7) methyltransferase. This is another data set of the same source.
Data set [15] relates to guanine-N7 methyltransferase (human versus SARS-CoV). The experiment in a line: in vitro.
A short description of data set [16]: Inhibition of envelope protein in HCoV-229E infected in human MRC-5 cells assessed as reduction in viral replication incubated for 6 days by crystal violet staining based plaque reduction assay. Format: cell-based. Conditions: Human coronavirus 229E, MRC5, 144 h.
Data set [17] is described as follows: Inhibition of envelope protein in Murine hepatitis virus A59 infected in mouse L929 cells assessed as reduction in viral replication incubated for 24 hrs by crystal violet staining based plaque reduction assay. Type of data set: cell-based. Particulars: Murine coronavirus, A59, L929, 24 h.
Data set [18] in a line: Inhibition of SARS-CoV 3C-like protease expressed in Escherichia coli BL21(DE3) using DABCYL-KTSAVLQSGFRKME-EDANS as substrate preincubated for 1 hr followed by substrate addition and measured after 16 hrs by fluorescence method. Also on record: species or system Severe acute respiratory syndrome-related coronavirus.
The nature of data set [19]: Inhibition of SARS-CoV NSP13 helicase using fluorescein and black hole quencher labelled dsDNA as substrate measured after 10 min by FRET-based assay. On the set-up: species or system Severe acute respiratory syndrome-related coronavirus.
Data set [20] in a line: Inhibition of SARS-CoV wild type NSP13 helicase using Cy3-labeled 31/18-mer as substrate measured after 10 min by FRET-based assay. On the set-up: species or system Severe acute respiratory syndrome-related coronavirus.
A short description of data set [21]: Inhibition of SARS-CoV 3C-like protease expressed in Escherichia coli BL21(DE3) using Dabcyl-KTSAVLQSGFRKME-Edans as substrate by fluorometric assay. Also on record: species or system Severe acute respiratory syndrome-related coronavirus.
Data set [22] is described as follows: Inhibition of MERS-CoV (KOR/KNIH/002_05_2015) 3C-like protease expressed in Escherichia coli BL21(DE3) using Dabcyl-KTSAVLQSGFRKME-Edans as substrate by fluorometric assay. Also on record: species or system Middle East respiratory syndrome-related coronavirus.
A short description of data set [23]: Inhibition of SARS-CoV spike protein expressed in Escherichia coli BL21(DE3)pLysS/human ACE2 using 2,2'-azinobis(3-ethylbenzthiazoline-sulfonic acid) preincubated for 2 hrs with biotinylated S protein followed by incubation with ACE2 for 1 hr and subsequent substrate addition by competitive biotinylated ELISA.
The nature of data set [24]: Inhibition of SARS-CoV spike protein expressed in Escherichia coli BL21(DE3)pLysS/human ACE2 using 2,2'-azinobis(3-ethylbenzthiazoline-sulfonic acid) at 10 nmol preincubated for 2 hrs with biotinylated S protein followed by incubation with ACE2 for 1 hr and subsequent substrate addition by competitive biotinylated ELISA relative to control. Particulars: time 3.0 hrs. A general note: An ELISA detects its analyte on a solid surface through an enzyme-linked reagent.

The nature of data set [25]: Inhibition of SARS-CoV 3C-like protease using abz-SVTLQSG-Tyr(NO2)R as substrate by spectrofluorimetric assay. Also on record: species or system Severe acute respiratory syndrome-related coronavirus.
Data set [26] in a line: Inhibition of SARS-CoV C-terminal 6His-tagged papain-like protease expressed in Escherichia coli BL21(DE3) using ubiquitin-AMC as substrate preincubated for 10 mins followed by substrate addition by luminescence spectrometric method. On the set-up: species or system Severe acute respiratory syndrome-related coronavirus.
The nature of data set [27]: Inhibition of SARS-CoV NSP13 helicase in presence of DT20Cy3 and ReleaseBHQ by FRET-based assay. Also on record: species or system Severe acute respiratory syndrome-related coronavirus.
A short description of data set [28]: Inhibition of SARS-CoV 3C-like protease (9970 to 10887 residues) expressed in Escherichia coli BL21(DE3) CodonPlus-RIL cells using DABCYL-KTSAVLQSGFRKME-EDANS as substrate by FRET assay. Also on record: species or system Severe acute respiratory syndrome-related coronavirus.
The nature of data set [29]: Inhibition of SARS-CoV papain-like protease (723 to 1041 residues) expressed in Escherichia coli BL21(DE3) using Arg-Leu-Arg-Gly-Gly-AMC as substrate by fluorescence method. On the set-up: species or system Severe acute respiratory syndrome-related coronavirus.
A short description of data set [30]: Inhibition of SARS-CoV N-terminal His-tagged 3C-like protease expressed in Escherichia coli GJ1158 using 2-aminobenzoyl-SVTLQSG-Tyr(NO2)-R as substrate by quenched-FRET assay. On the set-up: species or system Severe acute respiratory syndrome-related coronavirus.
The nature of data set [31]: Inhibition of SARS-CoV papain-like protease using Ub-7-amino-4-trifluoro-methylcoumarin as substrate incubated for 3 mins by fluorescence method. On the set-up: species or system Severe acute respiratory syndrome-related coronavirus.
The nature of data set [32]: Inhibition of MERS-CoV papain-like protease using Ub-7-amino-4-trifluoro-methylcoumarin as substrate incubated for 3 mins by fluorescence method. On the set-up: species or system Middle East respiratory syndrome-related coronavirus.

For `O=C(O[C@@H]1Cc2c(O)cc(O)cc2O[C@H]1c1ccc(O)c(O)c1)c1cc(O)c(O)c(O)c1` [(-)-CATECHINGALLATE], the half-maximal inhibitory concentration (IC50) (usually the concentration needed to halve the response being measured) in [1] came to 5 ng/mL (≈ 0.0113 µM).

For the molecule `CC(C)(C)OC(=O)Nc1cccn([C@@H](CC2CC2)C(=O)N[C@@H](C[C@@H]2CCCC2=O)C(=O)C(=O)NCc2ccccc2)c1=O`, the negative logarithm of the IC50 (pIC50) (in general, −log10 of the IC50, conventionally taken in molar units) in [2] is 6.17; in data set [3], 6.24; in data set [4], 6.05.

Turning to `O=C(O[C@@H]1Cc2c(O)cc(O)cc2O[C@H]1c1cc(O)c(O)c(O)c1)c1cc(O)c(O)c(O)c1` [GALLOCATECHIN GALLATE], the half-inhibitory concentration (IC50) in data set [1] is 5 ng/mL (≈ 0.0109 µM). With `Cc1cc(C(=O)N[C@@H](C)C(=O)N[C@H](C(=O)N[C@@H](CC(C)C)C(=O)N[C@H](/C=C/C(=O)OCc2ccccc2)C[C@@H]2CCNC2=O)C(C)C)no1`, the pEC50 (commonly −log10 of the EC50, conventionally taken in molar units) in data set [5] was 4.78. For the same molecule, the negative logarithm of the Ki (pKi) (in general, the negative decadic logarithm of the Ki, by convention in mol/L) in [6] is 5.72; in [7], 5.64. In data set [8], this molecule had a negative-log IC50 (pIC50) of 6.55.

In the case of `CC1=C(C(=O)OCCc2ccccc2)C(c2ccccc2[N+](=O)[O-])C2=C(CCCC2=O)N1` (stereo not drawn), the results for the negative-log IC50 (pIC50) in data set [9] and in [10] were 5.60 and 5.05, respectively. As for `Sc1nnc(NNc2ccc(I)cc2)n1NC1C=CCC1` (stereo not drawn), in data set [11], the pIC50 is 5.60. Take `Nc1ncnc2c1ncn2[C@@H]1O[C@H](C[C@@H](N)CC[C@H](N)C(=O)O)[C@@H](O)[C@H]1O` [SINEFUNGIN]: the values for the selectivity ratio in data set [12] and in [15] were 0.32 and < 2.63, respectively. Further, the results for the pIC50 in [13] and in data set [14] were 9.26 and > 7.30, respectively. Turning to `N=C(N)NC(=O)c1nc(Cl)c(N2CCCCCC2)nc1N` [N,N-HEXAMETHYLENEAMILORIDE], the figures for the negative-log EC50 (pEC50) in [16] and in data set [17] were 5.87 and 5.41, respectively. For `C[C@@H]1O[C@@H](O[C@H]2[C@@H](Oc3cc(O)c4c(=O)cc(-c5ccc(O)cc5)oc4c3)O[C@H](CO)[C@@H](O)[C@@H]2O)[C@H](O)[C@H](O)[C@H]1O`, in [18], the pIC50 was 4.56. As for `C=CCn1c(S)nnc1CSc1ccccc1[N+](=O)[O-]`, the pIC50 is 5.22 in [19] and 5.23 in data set [20]. As to `O=C[C@H](C[C@@H]1CCNC1=O)NC(=O)[C@H](Cc1ccccc1)NC(=O)/C=C/c1ccc(Cl)cc1F`, the negative logarithm of the IC50 (pIC50) in data set [21] was 6.70; in data set [22], 5.77. Take H-SQKSIVAYTM-NH2: the pIC50 in data set [23] is 8.74. Further, the inhibition (in general, the percentage by which the read-out fell short of the control) in data set [24] was found to be 90%. In data set [25], `O=C(Cc1cncc(Br)c1)c1ccc(-c2ccc(Cl)cc2)o1` showed a pIC50 of 4.89. In the case of `Nc1nc2[nH]cnc2c(=S)[nH]1` [THIOGUANINE], the negative logarithm of the IC50 (pIC50) in data set [26] was 5.30.

For the molecule `Cc1ncc(CO)c(C23OC4(O)CC(O)(CC(O)(C4)O2)O3)c1O`, in data set [27], the negative logarithm of the IC50 (pIC50) was 5.52.

Regarding `C=C(C)C(Cc1c(OC)ccc(C(=O)/C=C/c2ccc(O)cc2)c1O)C(=O)O` (stereo not drawn), the pIC50 in [28] was 4.94; in [29], 5.92. Regarding `O=C(Oc1cncc(Cl)c1)c1cccs1`, the pIC50 in [30] is 6.30. Turning to `CCN(CC)C(=S)SSC(=S)N(CC)CC`, the results for the negative-log IC50 (pIC50) in data set [31] and in data set [32] were 4.85 and 4.64, respectively.
